This data set has as its system Sprague-Dawley rats. Nature of the data set: Phase 1: specific effects of gacyclidine on the nociceptive threshold in rats (modified Randall-Selitto test). To be noted: for analgesic effect per se: 0.1 mg/kg. In kind it is in vivo, rat. Here is the method:
All the experiments are carried out on Sprague-Dawley rats weighing 350-400 g; each experimental phase is carried out according to a similar plan: each experimental phase is carried out on 6 groups of 12 rats including one group of control animals. The test adopted to measure the nociceptive threshold is the Randall-Selitto Test modified according to Kayser et al. (1990) (Kayser V., Basbaum A. I. and Guilbaud G.,
Deafferentation in the rat increase mechanical nociceptive threshold in the innervated limbs; Brain research ([…]), 508, 329-332), using a mechanical stimulus of increasing intensity (expressed in grams), the retained evoked response being the cry of the animal.
The general plan for an experimental phase is as follows: • arrival and housing of the animals: 4 days; • preparation of the animals allowing them to become familiar with the investigator and the experimental conditions and measurements in order to avoid any possibility of measurement bias being induced by stress: 14 days; • preparation and insertion of the catheters: 9 days; • post-operative rest (with antibiotic treatment) and determination of the stability of the experimental measurements (basic nociceptive threshold): 4 days; • testing of response to the different active ingredients: 9 days.
The 3 doses of gacyclidine retained: 0.1, 0.3 and 1 mg/kg, are injected by venous route using the catheter introduced into a jugular vein.
All the results are analyzed according to an ANOVA test.
Phase 1: study of the specific effects of gacyclidine on the nociceptive threshold in rats.
3 series of experiments each including 2 groups of animals of 12 rats are set up. • 1st series of experiments: • 1st group: the animals receive an injection of physiological saline solution. • 2nd group: the animals receive a dose of 0.1 mg/kg of gacyclidine.
2nd series of experiments: • 1st group: the animals receive an injection of physiological saline solution. • 2nd group: the animals receive a dose of 0.3 mg/kg of gacyclidine.
3rd series of experiments: • 1st group: the animals receive an injection of physiological saline solution. • 2nd group: the animals receive a dose of 1 mg/kg of gacyclidine.
All the animals in the 3 series of experiments are prepared during the same phase. The day of administration of the gacyclidine (or of the physiological saline solution) for each series is deferred by only 3 days in order to follow the evolution of the nociceptive threshold for several days following the administration of the pharmaceutical substances. The measurement of the nociceptive threshold is carried out over at least 4 hours after the injection of gacyclidine, at the rate of one measurement every 30 minutes then daily for at least one week.

The mark [1] stands for this setting: gacyclidine alone, 0.1 mg/kg i.v.

This note sets out measurements from patent publication US20090023780A1 (priority 2000, published 2009).

“1-[cis-2-methyl-1-(2-thienyl)cyclohexyl]piperidine [gacyclidine]”: the psychomotor effect entry (doses of 0.1 and 0.3 mg/kg) is listed as “does not have any psychomotor effect”. The “motor effect per se” value under setting [1] was “neither analgesic effect nor motor effect”. The “analgesic effect per se” value by setting is: under setting [1], “neither analgesic effect nor motor effect”; (gacyclidine alone, 0.1 mg/kg i.v., listed as thienylcyclohexylamine) “does not per se cause any analgesic effect”. Further, the “duration of analgesic effect (nociceptive threshold)” value is 30 min (gacyclidine alone, 0.3 mg/kg i.v.) and “first hour” (gacyclidine alone, 1 mg/kg i.v.). Moreover, for the setting “gacyclidine alone, 1 mg/kg i.v. (strongest dose used)”, the motor effects entry is given as “induces motor effects”.
